Measured values taken from US4490370A, “Naphthylglycyl cephalosporin derivatives” (priority 1983, dated 1984).
In brackets after ≈: the same amount, converted by molar mass. Read-outs that look alike come from different tables or passages of the source.

Legend:
P. magnus = test: Susceptibility of anaerobic cocci, agar-dilution, 24 hour MIC; assay type: cell-based; conditions: Finegoldia magna
Text: (§1) A typical and preferred compound provided by this invention is 7-(2-naphthylglycylamido)-3-methyl-3-cephem-4-carboxylic acid, the compound of Example 3. The antibacterial activity of this compound and several others of the invention has been determined in standard in vitro agar dilution assays against a variety of gram positive microorganisms. The following Tables present typical minimum inhibitory concentrations (MIC's) in μg/ml for the compounds when evaluated against the indicated microorganisms. MIC's for several known compounds are also presented for comparison.
(§2) Susceptibility of Anaerobic Cocci
(§3) Isolates by the Agar-Dilution
(§4) Method-24 hour MIC's (μg/ml)

P. prevoti = test: as above; assay type: cell-based; conditions: isolate 1293
Text: as §1, §2, §3, §4

[1] = tested on: Peptococcus Asaccharolyticus; test: as above; assay type: cell-based; conditions: Peptoniphilus asaccharolyticus, isolate 1344
Text: as §1, §2, §3, §4

Peptococcus Constellatus = test: as above; assay type: cell-based; conditions: Streptococcus constellatus, isolate 1468
Text: as §1, §2, §3, §4

[2] = tested on: Peptostreptococcus anaerobius; test: as above; assay type: cell-based
Text: as §1, §2, §3, §4

[3] = tested on: Peptostreptococcus intermedius; test: as above; assay type: cell-based
Text: as §1, §2, §3, §4

Bacteroides fragilis = test: Susceptibility of anaerobes, agar-dilution, 24 hour MIC; assay type: cell-based
Propionibacterum acnes = test: as above; assay type: cell-based
Text: as §1, §2, §3, §4

Staph. aureus = test: Agar dilution MIC, Staph. aureus; assay type: cell-based; conditions: Staphylococcus aureus
Text: (§5) The following Tables present typical minimum inhibitory concentrations (MIC's) in μg/ml for the compounds when evaluated against the indicated microorganisms.

Staph. epi = test: Agar dilution MIC, Staph. epi; assay type: cell-based
Text: as §5

Strep. A = test: Agar dilution MIC, Strep. A; assay type: cell-based
Text: as §1

Strep. PN = test: Agar dilution MIC, Strep. PN; assay type: cell-based; conditions: Table I, strain PARK; read-out: MIC
Text: as §5

H. influ. = test: Agar dilution MIC, H. influenza; assay type: cell-based; conditions: read-out: MIC
Text: as §5

Klebsiella = test: Agar dilution MIC, Klebsiella; assay type: cell-based; conditions: Klebsiella
Text: as §1

B. Fragilis = test: Expanded spectrum MIC, B. Fragilis; assay type: cell-based; conditions: Bacteroides fragilis, Table III
Text: as §1

[4] = tested on: β-lactamase (organism 265A); test: Stability to β-lactamases, 265A; assay type: biochemical; conditions: lower numbers mean greater stability
[5] = tested on: β-lactamase (organism PS185); test: Stability to β-lactamases, PS185; assay type: biochemical; conditions: lower numbers mean greater stability
β-lactamase (TEM) = test: Stability to β-lactamases, TEM; assay type: biochemical; conditions: lower numbers mean greater stability
[6] = tested on: β-lactamase (organism 1082E); test: Stability to β-lactamases, 1082E; assay type: biochemical; conditions: lower numbers mean greater stability
[7] = tested on: β-lactamase (organism 1313G); test: Stability to β-lactamases, 1313G; assay type: biochemical; conditions: lower numbers mean greater stability
[8] = Table III, strain 8438, read-out: MIC
[9] = Table III, strain 9050, read-out: MIC
[10] = Table III, strain 9136, read-out: MIC

CO[C@@]1(NC(=O)Cc2cccs2)C(=O)N2C(C(=O)O)=C(COC(N)=O)CS[C@@H]21 [Cefoxitin, reference compound]
MIC (P. magnus; isolate 1401): 2 µg/mL (≈ 4.68 µM)
MIC (P. magnus; isolate 1477): 0.5 µg/mL (≈ 1.17 µM)
MIC (P. prevoti): 1 µg/mL (≈ 2.34 µM)
MIC [1]: 0.25 µg/mL (≈ 0.585 µM)
MIC (Peptococcus Constellatus): 8 µg/mL (≈ 18.7 µM)
MIC ([2]; isolate 8): 0.25 µg/mL (≈ 0.585 µM)
MIC ([2]; isolate 52): 2 µg/mL (≈ 4.68 µM)
MIC ([2]; isolate 1477): 1 µg/mL (≈ 2.34 µM)
MIC ([3]; isolate 1264): 1 µg/mL (≈ 2.34 µM)
MIC ([3]; isolate 1524): 4 µg/mL (≈ 9.36 µM)
MIC ([3]; isolate 1624): 4 µg/mL (≈ 9.36 µM)
MIC (Bacteroides fragilis; isolate 200): 8 µg/mL (≈ 18.7 µM)
MIC (Bacteroides fragilis; isolate 206): 16 µg/mL (≈ 37.4 µM)
MIC (Bacteroides fragilis; isolate 3625): 16 µg/mL (≈ 37.4 µM)
MIC (Bacteroides fragilis; isolate 7371A): 8 µg/mL (≈ 18.7 µM)
MIC (Bacteroides fragilis; isolate 19671): 16 µg/mL (≈ 37.4 µM)
MIC (Bacteroides fragilis; isolate 19681): 32 µg/mL (≈ 74.9 µM)
MIC (Propionibacterum acnes; isolate 44): 2 µg/mL (≈ 4.68 µM)
MIC (Propionibacterum acnes; isolate 79): 8 µg/mL (≈ 18.7 µM)
MIC (Propionibacterum acnes; isolate 101): 4 µg/mL (≈ 9.36 µM)
MIC (Propionibacterum acnes; isolate 104): 4 µg/mL (≈ 9.36 µM)
MIC (Propionibacterum acnes; isolate 105): 2 µg/mL (≈ 4.68 µM)
MIC (Propionibacterum acnes; isolate 5191): ≤ 0.06 µg/mL
MIC (Propionibacterum acnes; isolate 5227): 2 µg/mL (≈ 4.68 µM)
MIC (Propionibacterum acnes; isolate 5228): 4 µg/mL (≈ 9.36 µM)
MIC (Propionibacterum acnes; isolate 5229): 2 µg/mL (≈ 4.68 µM)
MIC (Propionibacterum acnes; isolate 5246): 4 µg/mL (≈ 9.36 µM)

CC1=C(C(=O)O)N2C(=O)[C@@H](NC(=O)[C@H](N)c3ccccc3)[C@H]2SC1 [Cephalexin, reference compound]
MIC (Staph. aureus; Table I, strain S13E): 128 µg/mL (≈ 368 µM)
MIC (Staph. aureus; Table III expanded spectrum, strain 8725, read-out: MIC): 2 µg/mL (≈ 5.76 µM)
MIC (Staph. aureus; [8]): 1 µg/mL (≈ 2.88 µM)
MIC (Staph. aureus; Table III, strain 8787, read-out: MIC): 1 µg/mL (≈ 2.88 µM)
MIC (Staph. aureus; [9]): 2 µg/mL (≈ 5.76 µM)
MIC (Staph. aureus; [10]): 2 µg/mL (≈ 5.76 µM)
MIC (Staph. epi): 8 µg/mL (≈ 23 µM)
MIC (Staph. epi; Table I, strain EPI1, read-out: MIC): 32 µg/mL (≈ 92.1 µM)
MIC (Strep. A): 0.5 µg/mL (≈ 1.44 µM)
MIC (Strep. PN): 2 µg/mL (≈ 5.76 µM)
MIC (H. influ.; Table I, strain 251): 8 µg/mL (≈ 23 µM)
MIC (H. influ.; Table I, strain BRUN): 8 µg/mL (≈ 23 µM)
MIC (H. influ.; Table III, strain 101): 8 µg/mL (≈ 23 µM)
MIC (H. influ.; Table III, strain 102): 16 µg/mL (≈ 46.1 µM)
MIC (H. influ.; Table III, strain 103): 16 µg/mL (≈ 46.1 µM)
MIC (H. influ.; Table III, strain 104): 16 µg/mL (≈ 46.1 µM)
MIC (H. influ.; Table III, strain 105): 4 µg/mL (≈ 11.5 µM)
MIC (H. influ.; Table III, strain 106): 8 µg/mL (≈ 23 µM)
MIC (H. influ.; Table III, strain 107): 8 µg/mL (≈ 23 µM)
MIC (H. influ.; Table III, strain 108): 8 µg/mL (≈ 23 µM)
MIC (H. influ.; Table III, strain 109): 16 µg/mL (≈ 46.1 µM)
MIC (H. influ.; Table III, strain 110): 8 µg/mL (≈ 23 µM)
MIC (H. influ.; Table III, strain 111): 16 µg/mL (≈ 46.1 µM)
MIC (Klebsiella): 4 µg/mL (≈ 11.5 µM)
MIC (B. Fragilis; strain 180-821, read-out: MIC): 16 µg/mL (≈ 46.1 µM)
MIC (B. Fragilis; strain 10668, read-out: MIC): > 64 µg/mL
MIC (B. Fragilis; strain 10683, read-out: MIC): > 64 µg/mL
MIC (B. Fragilis; strain 10695, read-out: MIC): 64 µg/mL (≈ 184 µM)
MIC (B. Fragilis; strain 10750, read-out: MIC): 64 µg/mL (≈ 184 µM)
MIC (B. Fragilis; strain 10774, read-out: MIC): > 64 µg/mL
MIC (B. Fragilis; strain 10817, read-out: MIC): 16 µg/mL (≈ 46.1 µM)
MIC (B. Fragilis; strain 10837, read-out: MIC): 16 µg/mL (≈ 46.1 µM)
MIC (B. Fragilis; strain 107266, read-out: MIC): 32 µg/mL (≈ 92.1 µM)
MIC (B. Fragilis; strain 107268, read-out: MIC): 16 µg/mL (≈ 46.1 µM)

N[C@@H](C(=O)N[C@@H]1C(=O)N2C(C(=O)O)=C(Cl)CS[C@H]12)c1ccccc1 [Cefaclor, 7-phenylglycylamido-3-chloro-3-cephem-4-carboxylic acid, reference compound]
MIC (Staph. aureus; [8]): 1 µg/mL (≈ 2.72 µM)
MIC (Staph. aureus; [9]): 2 µg/mL (≈ 5.44 µM)
MIC (Staph. aureus; [10]): 2 µg/mL (≈ 5.44 µM)
MIC (Staph. aureus; Table III, strain 9290, read-out: MIC): 8 µg/mL (≈ 21.8 µM)
MIC (Staph. aureus; Table III, strain 9767, read-out: MIC): 2 µg/mL (≈ 5.44 µM)
MIC (H. influ.; Table III, strain 101): 2 µg/mL (≈ 5.44 µM)
MIC (H. influ.; Table III, strain 102): 16 µg/mL (≈ 43.5 µM)
MIC (H. influ.; Table III, strain 103): 2 µg/mL (≈ 5.44 µM)
MIC (H. influ.; Table III, strain 104): 1 µg/mL (≈ 2.72 µM)
MIC (H. influ.; Table III, strain 105): 1 µg/mL (≈ 2.72 µM)
MIC (H. influ.; Table III, strain 106): 2 µg/mL (≈ 5.44 µM)
MIC (H. influ.; Table III, strain 107): 2 µg/mL (≈ 5.44 µM)
MIC (H. influ.; Table III, strain 108): 1 µg/mL (≈ 2.72 µM)
MIC (H. influ.; Table III, strain 109): 2 µg/mL (≈ 5.44 µM)
MIC (H. influ.; Table III, strain 110): 1 µg/mL (≈ 2.72 µM)
MIC (H. influ.; Table III, strain 111): 1 µg/mL (≈ 2.72 µM)
MIC (B. Fragilis; strain 180-821): 64 µg/mL (≈ 174 µM)
MIC (B. Fragilis; strain 10668): 64 µg/mL (≈ 174 µM)
MIC (B. Fragilis; strain 10683): 16 µg/mL (≈ 43.5 µM)
MIC (B. Fragilis; strain 10695): 32 µg/mL (≈ 87 µM)
MIC (B. Fragilis; strain 10750): > 64 µg/mL
MIC (B. Fragilis; strain 10774): > 64 µg/mL
MIC (B. Fragilis; strain 10817): 64 µg/mL (≈ 174 µM)
MIC (B. Fragilis; strain 10837): > 64 µg/mL
MIC (B. Fragilis; strain 107266): 16 µg/mL (≈ 43.5 µM)
MIC (B. Fragilis; strain 107268): 16 µg/mL (≈ 43.5 µM)
Stability to β-lactamases [4]: 138
Stability to β-lactamases [5]: 71
Stability to β-lactamases (β-lactamase (TEM)): 23
Stability to β-lactamases [6]: 65
Stability to β-lactamases [7]: 4605
